Values of other authors, collected in patent US4806659A, “Tannin compounds” (Kabushiki Kaisha Tsumura Juntendo, priority 1985, dated 1989).

Settings: known drugs, schizophrenia

Row | SMILES | sedative effect | anti-hallucination and -delution effects
1 | COc1ccc2c(c1)N(C[C@H](C)CN(C)C)c1ccccc1S2 [Levomepromazine] | strong sedative effect | –
2 | CN(C)CCCN1c2ccccc2Sc2ccc(Cl)cc21 [chlorpromazine] | strong sedative effect | –
3 | OCCN1CCN(CCCN2c3ccccc3Sc3ccc(C(F)(F)F)cc32)CC1 [fluphenazine] | – | strong anti-hallucination and -delution effects
4 | O=C(CCCN1CCC(O)(c2ccc(Cl)cc2)CC1)c1ccc(F)cc1 [haloperidol] | – | strong anti-hallucination and -delution effects
5 | OCCN1CCN(CCCN2c3ccccc3Sc3ccc(Cl)cc32)CC1 [perphenazine] | – | strong anti-hallucination and -delution effects
6 | CCN1CCCC1CNC(=O)c1cc(S(N)(=O)=O)ccc1OC (stereo not drawn) [sulpiride] | mild sedative effect | –
